Measured values reported in patent publication US20100267054A1, “Measuring The Activity Of Proteases” (priority 2007, published 2010).
Values belong to the molecule of their own block, whether it stands above or below them.

Key:
[1] = test system: protease activity of human serum; experiment: Effect of E64 and CA-074 on the protease activities of human sera with and without treatment by immobilised papain (AFC method); type: biochemical; settings: two normal human sera; for protease activity of sera after pre-treatment with immobilised papain, effect of inhibitor: pre-treated with immobilised papain; for small proteolytic activity of sera without pre-treatment, effect of inhibitor: without pre-treatment with immobilised papain
Experimental: FIG. 7 Effect of the inhibitors E64 and CA074 on the activity of purified cathepsin B or the protease activities of sera with and without treatment by immobilised papain. The tests were carried out with the AFC method.
(§1) The measurement of the fluorescence was done with 96-well microtiter plates by means of a fluorescence reader (for measurements with AMC: excitation at 355 nm, fluorescence at 450 nm) (for measurements with AFC: excitation at 400 nm, fluorescence at 508 nm).
(§2) In the AFC-method the assay run for the measurement of the activity was carried out in test samples at 37° C. The content of the test sample was transferred into the microtiter plate just before the measurement of the fluorescence.
The enzymatic activities of cathepsin B in small concentrations were measured of two “normal” human sera with and without pre-treatment with immobilised papain (FIG. 7).

[2] = target: T1, cathepsin B (Bos taurus, UniProt P07688); experiment: Inhibition of cathepsin B by cystatin A; type: biochemical, bovine; settings: 700 nM cystatin A; 5 and 10 ng cathepsin B per assay run
T1 construct: cathepsin B (purified from the bovine spleen, 10 units/ml) was used in the test; from tissue; host or cells: bovine spleen
Source text: a1. Introduction: The activity measurement of cathepsin B is based on the cleavage of a dipeptide substrate • Z-Arg-Arg-fluorophore→Z-Arg-Arg+fluorophore (Z=protecting group, Arg=basic amino acid arginine)
as §1, §2
The inhibition of cathepsin B by the known inhibitor cystatin A was tested in vitro with two different cathepsin B concentrations.

Molecule: CCCNC(=O)[C@H]1O[C@@H]1C(=O)N[C@H](C(=O)N1CCC[C@H]1C(=O)O)[C@@H](C)CC [CA-074]
protease activity of sera after pre-treatment with immobilised papain, effect of inhibitor [1]: reduced this activity to the value which was measured in the samples not pre-treated | small proteolytic activity of sera without pre-treatment, effect of inhibitor [1]: inhibited neither

Molecule: CC(C)C[C@H](NC(=O)[C@H]1O[C@@H]1C(=O)O)C(=O)NCCCCN=C(N)N [E64]
protease activity of sera after pre-treatment with immobilised papain, effect of inhibitor [1]: reduced this activity to the value which was measured in the samples not pre-treated | small proteolytic activity of sera without pre-treatment, effect of inhibitor [1]: inhibited neither

inhibition of cathepsin B [2]: > 95%
B1: cystatin A: known protein inhibitor of cathepsin B (protein, UniProt P01040 1-98, looked up)
Cystatin-A: MIPGGLSEAKPATPEIQEIVDKVKPQLEEKTNETYGKLEAVQYKTQVVAGTNYYIKVRAGDNKYMHLKVFKSLPGQNEDLVLTGYQVDKNKDDELTGF
